“Also recorded” adds a separate entry of the source. Where two headings read alike, the source gives them in different places.
Columns and labels:
H3 receptor = H3 receptor (Cavia porcellus, UniProt Q9JI35); assay: H3 antagonistic activity against H3 agonist-induced inhibition of electrically evoked contraction of guinea-pig jejunum; conditions: vs (R)-α-methylhistamine, Schild analysis; for pA2 (SEM) H3: guinea pig jejunum; for Kb: pA2 (SEM) H3, guinea pig jejunum
[1] = molecular target: T1, rat histamine H3 receptor (rH3R) (Rattus norvegicus, UniProt Q9QYN8); conditions: read-out: KD saturation binding at rH3R; HEK-293T membranes, two hours at 25 °C
T1 sequence (Q9QYN8 whole entry): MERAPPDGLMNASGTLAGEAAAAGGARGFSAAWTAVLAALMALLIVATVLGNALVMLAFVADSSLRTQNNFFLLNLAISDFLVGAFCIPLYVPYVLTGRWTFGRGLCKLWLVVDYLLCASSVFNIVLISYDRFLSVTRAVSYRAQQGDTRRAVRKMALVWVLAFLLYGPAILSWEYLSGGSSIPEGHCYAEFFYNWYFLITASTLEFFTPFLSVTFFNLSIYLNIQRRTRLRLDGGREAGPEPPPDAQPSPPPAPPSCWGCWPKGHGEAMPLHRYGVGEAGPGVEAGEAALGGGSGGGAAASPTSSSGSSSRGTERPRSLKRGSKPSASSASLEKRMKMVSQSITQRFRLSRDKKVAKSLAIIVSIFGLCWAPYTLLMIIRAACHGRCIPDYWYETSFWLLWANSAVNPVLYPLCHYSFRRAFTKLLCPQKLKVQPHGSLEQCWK

[2] = molecular target: human histamine H3 receptor (hH3R) (Homo sapiens, UniProt Q9Y5N1); conditions: read-out: KD saturation binding at hH3R
Sequence of human histamine H3 receptor (hH3R) (Q9Y5N1 whole entry): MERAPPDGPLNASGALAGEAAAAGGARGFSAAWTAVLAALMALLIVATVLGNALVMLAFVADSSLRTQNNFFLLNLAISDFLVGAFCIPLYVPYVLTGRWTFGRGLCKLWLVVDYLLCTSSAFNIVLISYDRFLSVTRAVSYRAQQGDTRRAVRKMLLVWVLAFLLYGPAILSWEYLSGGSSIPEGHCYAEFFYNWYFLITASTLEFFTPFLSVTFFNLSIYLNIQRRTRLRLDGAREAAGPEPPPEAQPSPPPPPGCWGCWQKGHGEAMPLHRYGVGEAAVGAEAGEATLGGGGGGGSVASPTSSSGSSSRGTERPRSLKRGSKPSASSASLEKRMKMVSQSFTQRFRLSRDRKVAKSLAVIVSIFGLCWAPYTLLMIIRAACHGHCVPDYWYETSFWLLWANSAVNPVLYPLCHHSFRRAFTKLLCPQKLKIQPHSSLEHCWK

H1 receptor [3] = molecular target: T2, H1 receptor (Cavia porcellus, UniProt P31389); assay: H1 antagonistic effects in vitro using the guinea pig ileum
T2 sequence (P31389 whole entry): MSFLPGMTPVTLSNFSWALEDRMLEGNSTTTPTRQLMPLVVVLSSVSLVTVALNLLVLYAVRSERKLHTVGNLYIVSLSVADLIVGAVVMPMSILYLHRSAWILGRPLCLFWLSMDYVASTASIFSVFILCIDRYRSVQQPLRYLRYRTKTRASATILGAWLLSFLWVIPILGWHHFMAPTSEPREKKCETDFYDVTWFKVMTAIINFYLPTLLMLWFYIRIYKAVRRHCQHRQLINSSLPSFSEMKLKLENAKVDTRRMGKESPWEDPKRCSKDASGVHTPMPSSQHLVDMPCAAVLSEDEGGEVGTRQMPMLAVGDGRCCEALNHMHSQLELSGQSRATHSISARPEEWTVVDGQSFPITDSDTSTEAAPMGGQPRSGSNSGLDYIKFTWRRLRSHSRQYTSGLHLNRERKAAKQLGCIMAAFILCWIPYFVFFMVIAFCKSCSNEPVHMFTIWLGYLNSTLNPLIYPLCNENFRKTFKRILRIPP
Protocol: The final compounds showing the highest potency for the H3 receptors were also tested for H1 antagonistic effects in vitro, following standard methods, using the guinea pig ileum [34].
Selected final compounds were tested for H1 antagonistic effects in vitro, following standard methods, using the guinea pig ileum [34]. The donors were male guinea pigs (300–400 g) as mentioned above.

MAO-B = assay: Post-mortem cerebral MAO-B activity (radioisotopic assay); type: in vivo, rat; conditions: cerebral cortex, rats s.c. 3 mg/kg/daily for five days, means ± SEM
Protocol: (§1) Post-mortem brain analyses included estimation of the amine neurotransmitters concentrations as well as the activities of the degradative enzymes HNMT and MAO-A and MAO-B. The rats were sacrificed 24 h after the last injection. The brains were collected, separated into hypothalamus and the cerebral cortex according to the Glowinski and Iversen method, immediately frozen in liquid nitrogen and kept at −80 °C until assayed. […] For MAO-A serotonin (5-[2-^14C]-hydroxytryptamine binoxalate) and for MAO-B β-[ethyl-1-^14C]-phenylethylamine hydrochloride were used as substrates and respectively, clorgyline (MAO-A) and deprenyl (MAO-B) (final conc. 10^−9 M) as the enzymes inhibitors. Protein was measured by Lowry method.

HNMT = assay: Post-mortem cerebral HNMT activity (radioisotopic assay); type: in vivo, rat; conditions: for HNMT activity CTX: cerebral cortex; for HNMT activity CTX / HNMT activity HTH: rats s.c. 3 mg/kg/daily for five days, means ± SEM; for HNMT activity HTH: hypothalamus
Protocol: (§2) Post-mortem brain analyses included estimation of the amine neurotransmitters concentrations as well as the activities of the degradative enzymes HNMT and MAO-A and MAO-B. The rats were sacrificed 24 h after the last injection. The brains were collected, separated into hypothalamus and the cerebral cortex according to the Glowinski and Iversen method [42], immediately frozen in liquid nitrogen and kept at −80 °C until assayed. […] For MAO-A serotonin (5-[2-^14C]-hydroxytryptamine binoxalate) and for MAO-B β-[ethyl-1-^14C]-phenylethylamine hydrochloride were used as substrates and respectively, clorgyline (MAO-A) and deprenyl (MAO-B) (final conc. 10^−9 M) as the enzymes inhibitors.

MAO-A = assay: Post-mortem cerebral MAO-A activity (radioisotopic assay); type: in vivo, rat; conditions: cerebral cortex, rats s.c. 3 mg/kg/daily for five days, means ± SEM
Protocol: as §1

Lewis rats = assay: Food consumption during subchronic administration to rats (metabolic cages); type: in vivo, rat; conditions: s.c. 3 mg/kg/daily for five days
Protocol: For the first stage, food intakes were measured daily during subchronic drugs administration. […] All animal experimental procedures were performed in accordance with EU directives and local ethical regulations. Male Lewis rats 9–10 weeks of age were used. Metabolic cages (Tecniplast, Buguggiate, Italy) were used to measure feed consumption. The cages have a standardized size that allows the animal to move inside freely. Throughout the adaptive period and the experimental one, access to feed and fluid was unlimited. The illumination cycle was stable at 12 h light on, 12 h light off. Rats were individually placed in the cages four days before the onset of treatment to adapt to a new environment and conditions of housing. The consumption and excretion were recorded every morning and the monitoring continued as long as the rats stayed in metabolic cages. The treatment ran for five days from the fifth day. […] Records of consumption were taken as g of feed per 100 g body mass.

[4] = test system: histamine concentration in rat brain; assay: Post-mortem cerebral histamine concentration (ELISA); type: in vivo; conditions: rats, s.c. 3 mg/kg/daily for five days
Protocol: as §2

[5] = test system: dopamine, noradrenaline and serotonin concentration in rat brain; assay: Post-mortem cerebral concentration of biogenic amines DA, NA, 5-HT (RIA); type: in vivo; conditions: rats
Protocol: as §2

H1 receptor [6] = molecular target: T2, H1 receptor; set-up: The excised ileum was placed in phosphate buffer at room temperature; from tissue; host or cells: guinea pig ileum; conditions: guinea pig ileum, NA = inactive, cited from earlier work
[7] = molecular target: T1, rat histamine H3 receptor (rH3R); assay: biochemical

Sequence of H3 receptor (Q9JI35 whole entry): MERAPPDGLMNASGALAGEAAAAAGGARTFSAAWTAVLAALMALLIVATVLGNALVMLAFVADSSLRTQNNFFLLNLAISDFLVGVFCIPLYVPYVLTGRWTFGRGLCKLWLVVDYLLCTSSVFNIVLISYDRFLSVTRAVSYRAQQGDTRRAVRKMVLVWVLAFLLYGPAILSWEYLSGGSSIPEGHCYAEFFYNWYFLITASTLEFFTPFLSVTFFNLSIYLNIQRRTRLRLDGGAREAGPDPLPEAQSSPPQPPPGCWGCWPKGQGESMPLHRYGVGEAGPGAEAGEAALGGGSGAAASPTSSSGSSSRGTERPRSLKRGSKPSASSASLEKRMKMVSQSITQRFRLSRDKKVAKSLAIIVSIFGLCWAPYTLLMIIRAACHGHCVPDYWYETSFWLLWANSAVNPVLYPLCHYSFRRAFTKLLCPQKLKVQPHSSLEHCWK

CCCN1CCN(c2ncc(CCCN(C)CCc3ccccc3)s2)CC1 [Compound 3b, N-Methyl-N-(2-phenylethyl)-3-[2-(4-n-propylpiperazin-1-yl)-1,3-thiazol-5-yl]propan-1-amine]
pA2 (SEM) H3 (H3 receptor): 7.81
Kb (H3 receptor): 15.5 nM

CNCCc1cnc[nH]1 [[^3H]-N^α-MH, [^3H]-N^α-methylhistamine]
Kd [1]: 2.72 ± 0.34 nM
Kd [2]: 0.9 ± 0.08 nM

CCCN1CCN(c2ncc(CCCCN(C)CCc3ccccc3)s2)CC1 [Compound 3e, N-Methyl-N-(2-phenylethyl)-4-[2-(4-n-propylpiperazin-1-yl)-1,3-thiazol-5-yl]butan-1-amine]
Kb (H3 receptor): 10.7 nM

CCCN1CCN(c2ncc(CCCN(C)Cc3ccccc3)s2)CC1 [Compound 3a, N-Benzyl-N-methyl-3-[2-(4-n-piperazin-1-yl)-1,3-thiazol-5-yl]propan-1-amine]
pA2 (SEM) H3 (H3 receptor): 8.38
Kb (H3 receptor): 4.17 nM
Kb (H1 receptor [3]): 3160 nM

O=C(c1ccc(OCCCc2cnc[nH]2)cc1)C1CC1 [Ciproxifan, ciproxifan, reference compound]
MAO-B activity CTX (MAO-B): 1049 ± 56.16 pmol/min/mg protein
HNMT activity CTX (HNMT): 46.90 ± 3.59 pmol/min/mg protein
HNMT activity HTH (HNMT): 44.68 ± 5.50 pmol/min/mg protein
MAO-A activity CTX (MAO-A): 1654 ± 31.42 pmol/min/mg protein
effect on food intake (Lewis rats): caused a significant decrease in consumption
histamine concentration in the hypothalamus ([4]; 3 mg/kg): tended to be higher than in the untreated controls; also recorded: significantly higher than in ADS-531 injected rats

CCCN1CCN(c2ncc(CCCCN(C)CCCc3ccccc3)s2)CC1 [Compound 3f, N-Methyl-N-(3-phenylpropyl)-4-[2-(4-n-propylpiperazin-1-yl)-1,3-thiazol-5-yl]butan-1-amine]
pA2 (SEM) H3 (H3 receptor): 7.91
Kb (H3 receptor): 12.3 nM

CCCN1CCN(c2ncc(CCN(C)CCCc3ccccc3)s2)CC1 [Compound 2c, N-methyl-N-3-phenylalkyl-2-[2-(4-n-propylpiperazin-1-yl)-1,3-thiazol-5-yl]ethan-1-amine]
MAO-B activity CTX (MAO-B): 1044 ± 38.91 pmol/min/mg protein
brain penetration ([5]; s.c. 3 mg/kg, 5 days): penetrated the brain
cerebral concentrations of dopamine, noradrenaline and serotonin ([5]; s.c. 3 mg/kg/daily for five days, listed as ADS-531, 3 mg/kg): affected dopamine, noradrenaline and serotonin concentration; also recorded: caused alterations in the concentrations of dopamine, noradrenaline, and serotonin; also recorded: increase of 5HT and NA level throughout the brain with the exception of the hypothalamus
pA2 (SEM) H1 (H1 receptor [6]): did not possess any activity at H1
pA2 (SEM) H1 (H1 receptor [6]; listed as ADS-531): did not exhibit any H1-antagonistic activity; also recorded: devoid of the antagonistic activity at the H1 receptor
HNMT activity CTX (HNMT): 48.19 ± 0.47 pmol/min/mg protein
HNMT activity HTH (HNMT): 37.58 ± 2.42 pmol/min/mg protein
effect on enzyme activities related to histamine metabolism in the brain (HNMT, MAO-B pathway) (HNMT; rats, s.c. 3 mg/kg/daily for five days): No significant changes
MAO-A activity CTX (MAO-A): 1625 ± 49.99 pmol/min/mg protein
effect on food intake (Lewis rats; listed as ADS-531, 3 mg/kg): did not affect histamine concentration nor feeding behavior; also recorded: did not influence the food intake
cerebral histamine concentration ([4]; listed as ADS-531, 3 mg/kg): did not affect histamine concentration; also recorded: No significant changes

CCCN1CCN(c2ncc(CCCN(C)CCCc3ccccc3)s2)CC1 [Compound 3c, N-Methyl-N-(3-phenylpropyl)-3-[2-(4-n-propylpropylpiperazin-1-yl)-1,3-thiazol-5-yl]-propan-1-amine]
pA2 (SEM) H3 (H3 receptor): 7.46
Kb (H3 receptor): 34.7 nM

CCCN1CCN(c2ncc(CCCCN(C)Cc3ccccc3)s2)CC1 [Compound 3d, N-Benzyl-N-methyl-4-[2-(4-n-propylpiperazin-1-yl)-1,3-thiazol-5-yl]butan-1-amine]
Kb (H3 receptor): 11.2 nM
Kb (H1 receptor [3]): 562 nM
pA2 (SEM) H1 (H1 receptor [3]; guinea pig ileum, vs histamine): 6.25

S=C(NC1CCCCC1)N1CCC(c2cnc[nH]2)CC1 [Thioperamide, thioperamide, reference compound]
Ki [7]: 12.6 nM
Kb (H3 receptor): 3.39 nM

From PMC6017745 (Molecules : A Journal of Synthetic Chemistry and Natural …, 2018)
